Patent publication US12612424B2, “HPK1 inhibitors and uses thereof” (Regor Pharmaceuticals, Inc., priority 2019, dated 2026)
Like-named read-outs stand apart in the source and are kept apart here.

Legend:
JAK3 = biological target: T1, JAK3 (Homo sapiens, UniProt P52333); assay: JAK3 biochemical assay (ADP-GLO Kinase Assay); details: for JAKs/HPK1 IC50 Ratio, N* / JAKs/HPK1 IC50 Ratio, B*: ratio of JAK3 IC50 to HPK1 IC50; for JAKs/HPK1 IC50 Ratio, N*: second testing facility; for JAKs/HPK1 IC50 Ratio, B*: first testing facility
T1 construct: purchased Thermo fisher PV3855
T1 sequence (P52333 781-1124 limits assumed): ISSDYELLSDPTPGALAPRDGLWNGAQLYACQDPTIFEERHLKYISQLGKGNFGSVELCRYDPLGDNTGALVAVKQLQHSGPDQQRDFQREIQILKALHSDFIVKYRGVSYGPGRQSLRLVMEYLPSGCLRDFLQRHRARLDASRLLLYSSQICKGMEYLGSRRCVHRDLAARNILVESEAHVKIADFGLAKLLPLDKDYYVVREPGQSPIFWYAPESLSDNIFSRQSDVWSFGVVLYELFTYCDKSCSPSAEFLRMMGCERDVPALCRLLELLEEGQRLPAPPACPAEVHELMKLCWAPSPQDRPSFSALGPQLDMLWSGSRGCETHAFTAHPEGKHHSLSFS
Protocol: Biology Example 4 JAK3 Biochemical Assay
This example used the ADP-GLO™ Kinase Assay to measure the effect of potential HPK1 inhibitor compounds on JAK3 kinase activity. An exemplary experimental setting is described below, though minor adjustments can be made in individual assays.
3. Procedures • 1. Prepare JAK3 kinase buffer • Freshly adding DTT and BSA into Buffer (Final Conc.: 40 mM Tris pH7.5; 20 mM MgCl2, 0.1 mg/ml BSA, 50 μM DTT).
• 2. Compounds Preparation • For tested compounds: compounds were diluted to 1 mM, by mixing 5 μL of 10 mM compound stocks to 45 μL DMSO. The compounds solutions were then serially diluted 3-fold for 10 doses. The top compound concentration was 1 mM (100×), DMSO concentration was 100%. • 50 nL of each of 10 doses of diluted compound were added to 384-well assay plate (Corning #4512) by ECHO. • For positive control, 50 nL of 1 mM reference compound were added to 384-well assay plate (Corning #4512) by ECHO. • For negative control: 50 nL of DMSO was transferred into 384-well assay plate as a negative control. • The assay plate was centrifuged at 1,500 rpm for 1 minute. • 3. Compounds were Transferred by ECHO Following the Layout Below: • Reference and test compounds 1-15: serial 3-fold dilution from 10 μM to 0.508 nM (10 doses); negative control is 0.78 ng JAK3, 4 μM ATP & 0.2 μg/μL poly, 1% DMSO; positive control is the top dose of the reference compound, 0.78 ng JAK3, 0.2 μg/μL Poly(E4Y1), 4 μMATP, 1% DMSO. • 4. Add 2.5 μL/well of 2×JAK3 working solution using pipette (Thermo, 30 μL multi-channel), Centrifuge at 1,500 rpm for 1 minute. • 5. Add 2.5 μL/well of 2×ATP-Poly(E4Y1) working mixture using pipette (Thermo, 30 μL multi-channel), Centrifuge at 1,500 rpm for 1 minute. • 6. Incubate the assay plate at 25° C. for 60 min. • 7. Add 5 μL/well ADP-GLO™ Reagent by BRAVO to stop the kinase reaction and deplete the unconsumed ATP after 1 hour. Centrifuge at 1,500 rpm for 1 minute. Incubate at 25° C. for 40 min. • 8. Add 10 uL of Kinase Detection Reagent by BRAVO to convert ADP to ATP. Centrifuge at 1,500 rpm for 1 minute. Incubate at 25° C. for 40 min. • 9. Record luminescence signal on an Envision plate reader (384-USL). • 10. Process data using XL-fit. Inhibition %=[1-(test well−Negative control)/(positive control−Negative control)]*100%. 5. Data Analysis
The percent (%) inhibition at each concentration of compound is calculated based on and relative to the signal in the Negative and Positive control wells contained within each assay plate. The Negative control wells served as 0% inhibition, and the Positive control wells served as 100% inhibition. The concentrations and % inhibition values for tested compounds are plotted and the concentration of compound required for 50% inhibition (IC50) is determined with a Three-parameter logistic dose response equation. The endpoint value (IC50) for the reference peptide/compound is evaluated in each experiment as a quality control measure. If the endpoint value was within 3-fold of the expected value then the experiment was deemed acceptable.

HPK1 = HPK1 (Homo sapiens, UniProt Q92918); assay: HPK1 biochemical assay (ADP-GLO Kinase Assay)
Chain of HPK1 (Q92918 whole entry): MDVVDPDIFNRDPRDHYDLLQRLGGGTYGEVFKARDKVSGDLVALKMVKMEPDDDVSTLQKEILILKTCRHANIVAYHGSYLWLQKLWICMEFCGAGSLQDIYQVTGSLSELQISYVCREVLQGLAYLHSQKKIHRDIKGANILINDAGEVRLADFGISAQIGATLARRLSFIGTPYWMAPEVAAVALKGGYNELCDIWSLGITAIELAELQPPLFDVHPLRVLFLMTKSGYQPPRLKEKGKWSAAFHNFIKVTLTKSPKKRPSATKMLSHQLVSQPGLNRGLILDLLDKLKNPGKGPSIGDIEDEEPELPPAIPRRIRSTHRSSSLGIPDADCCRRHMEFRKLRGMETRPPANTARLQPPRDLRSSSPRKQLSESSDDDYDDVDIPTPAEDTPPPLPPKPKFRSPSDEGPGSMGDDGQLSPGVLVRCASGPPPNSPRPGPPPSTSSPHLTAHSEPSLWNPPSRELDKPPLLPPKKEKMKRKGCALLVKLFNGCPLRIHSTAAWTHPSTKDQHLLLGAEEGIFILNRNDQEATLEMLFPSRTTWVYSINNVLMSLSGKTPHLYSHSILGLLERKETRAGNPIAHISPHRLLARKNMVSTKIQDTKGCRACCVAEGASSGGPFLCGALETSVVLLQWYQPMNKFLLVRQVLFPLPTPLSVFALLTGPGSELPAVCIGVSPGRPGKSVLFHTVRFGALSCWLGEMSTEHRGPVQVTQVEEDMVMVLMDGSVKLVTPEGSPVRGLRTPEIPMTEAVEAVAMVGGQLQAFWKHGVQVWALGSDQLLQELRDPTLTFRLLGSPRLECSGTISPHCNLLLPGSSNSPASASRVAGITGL
Outline: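 HPK1 (0.6 ng/μL final) activity was followed with MBP substrate and 10 μM ATP in Tris pH 7.5/MgCl2/BSA/DTT buffer, measured by ADP-Glo luminescence. Compounds were tested as 3-fold dilutions from 10 μM. IC50 came from a three-parameter logistic fit, with inhibition normalised to high/low controls.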

[1] = N*: testing performed in a second testing facility, read-out: JAK3 IC50 (nM) Relative, N*
[2] = B*: testing performed in a first testing facility, read-out: HPK1 IC50 (nM) Relative, B*
[3] = N*: testing performed in a second testing facility, read-out: HPK1 IC50 (nM) Relative, N*
[4] = B*: testing performed in a first testing facility, read-out: JAK3 IC50 (nM) Relative, B*

Row | Structure (SMILES) | IC50 (JAK3; [1]) | JAKs/HPK1 IC50 Ratio, N* (JAK3) | IC50 (HPK1; [2]) | IC50 (HPK1; [3]) | IC50 (JAK3; [4]) | JAKs/HPK1 IC50 Ratio, B* (JAK3)
1 | CCc1c(Cl)[nH]c2ncc(-c3ccc(N)c(P(C)(C)=O)c3)cc12 [Example 69, (2-Amino-5-(2-chloro-3-ethyl-1H-pyrrolo[2,3-b]pyridin-5-yl)phenyl)dimethylphosphine oxide] | 500 to 1000 nM | 52 | ≤ 100 nM | ≤ 100 nM |  | 
2 | CCc1c[nH]c2ncc(-c3ccc(N)c(P(C)(C)=O)c3)cc12 [Example 70, (2-Amino-5-(3-ethyl-1H-pyrrolo[2,3-b]pyridin-5-yl)phenyl)dimethylphosphine oxide] | 500 to 1000 nM | 50 | ≤ 100 nM | ≤ 100 nM | 500 to 1000 nM | 70
3 | CCc1c[nH]c2ncc(-c3ccc(C(=O)OC)c(P(C)(C)=O)c3)cc12 [Example 72, Methyl 2-(dimethylphosphoryl)-4-(3-ethyl-1H-pyrrolo[2,3-b]pyridin-5-yl)benzoate] |  |  | 100 to 500 nM |  | > 1000 nM | 11
4 | CCc1c[nH]c2ncc(-c3ccc(CO)c(P(C)(C)=O)c3)cc12 [Example 73, (5-(3-Ethyl-1H-pyrrolo[2,3-b]pyridin-5-yl)-2-(hydroxymethyl)phenyl)dimethylphosphine oxide] |  |  | 100 to 500 nM |  | 500 to 1000 nM | 5
5 | CCc1c[nH]c2ncc(-c3ccc(CF)c(P(C)(C)=O)c3)cc12 [Example 74, (5-(3-Ethyl-1H-pyrrolo[2,3-b]pyridin-5-yl)-2-(fluoromethyl)phenyl)dimethylphosphine oxide] |  |  | 100 to 500 nM |  | > 1000 nM | 19
6 | CCc1c[nH]c2ncc(-c3ccc(N)c(P(C)(C)=O)n3)cc12 [Example 75, (3-Amino-6-(3-ethyl-1H-pyrrolo[2,3-b]pyridin-5-yl)pyridin-2-yl)dimethylphosphine oxide] |  |  | ≤ 100 nM |  | > 1000 nM | 59
7 | CCc1c[nH]c2ncc(-c3ccc(NC4COC4)c(P(C)(C)=O)c3)cc12 [Example 76, (5-(3-Ethyl-1H-pyrrolo[2,3-b]pyridin-5-yl)-2-(oxetan-3-ylamino)phenyl)dimethylphosphine oxide] |  |  | 500 to 1000 nM |  | > 1000 nM | 4
8 | CC(C)c1c[nH]c2ncc(-c3ccc(N)c(P(C)(C)=O)c3)cc12 [Example 77, (2-Amino-5-(3-isopropyl-1H-pyrrolo[2,3-b]pyridin-5-yl)phenyl)dimethylphosphine oxide] |  |  | ≤ 100 nM |  | > 1000 nM | 76
9 | CCc1c[nH]c2ncc(-c3ccc(C(F)(F)F)c(P(C)(C)=O)c3)cc12 [Example 78, (5-(3-Ethyl-1H-pyrrolo[2,3-b]pyridin-5-yl)-2-(trifluoromethyl)phenyl)dimethylphosphine oxide] |  |  | 500 to 1000 nM |  | > 1000 nM | >15
10 | COc1cc2c(cc1Nc1ncc(Cl)c(-n3cc(S(C)(=O)=O)c4ccccc43)n1)CN(C)CC2 [Example 80, N-(5-chloro-4-(3-(methylsulfonyl)-1H-indol-1-yl)pyrimidin-2-yl)-6-methoxy-2-methyl-1,2,3,4-tetrahydroisoquinolin-7-amine] |  |  | ≤ 100 nM |  | > 1000 nM | >1172
11 | COc1cc2c(cc1Nc1ncc(Cl)c(-n3cc(CS(C)(=O)=O)c4ccccc43)n1)CN(C)CC2 [Example 82, N-(5-chloro-4-(3-((methylsulfonyl)methyl)-1H-indol-1-yl)pyrimidin-2-yl)-6-methoxy-2-methyl-1,2,3,4-tetrahydroisoquinolin-7-amine] |  |  | ≤ 100 nM |  | > 1000 nM | 800
12 | COc1cc2c(cc1Nc1ncc(Cl)c(N3CCc4cc(Br)ccc43)n1)CN(C)CC2 [Example 85, N-(4-(5-bromoindolin-1-yl)-5-chloropyrimidin-2-yl)-6-methoxy-2-methyl-1,2,3,4-tetrahydroisoquinolin-7-amine] |  |  | ≤ 100 nM |  | > 1000 nM | 178
13 | COc1cc2c(cc1Nc1ncc(Cl)c(N3CCc4c(OC)cccc43)n1)CN(C)CC2 [Example 89, N-(5-chloro-4-(4-methoxyindolin-1-yl)pyrimidin-2-yl)-6-methoxy-2-methyl-1,2,3,4-tetrahydroisoquinolin-7-amine] |  |  | ≤ 100 nM |  | > 1000 nM | 944
14 | COc1cc2c(cc1Nc1ncc(Cl)c(-n3cc(NS(C)(=O)=O)c4ccccc43)n1)CN(C)CC2 [Example 94, N-(1-(5-chloro-2-((6-methoxy-2-methyl-1,2,3,4-tetrahydroisoquinolin-7-yl)amino)pyrimidin-4-yl)-1H-indol-3-yl)methanesulfonamide] |  |  | ≤ 100 nM |  | > 1000 nM | 449
15 | COc1ccc2c(c1)C(C(=O)O)CN2c1nc(Nc2cc3c(cc2OC)CCN(C)C3)ncc1Cl (stereo not shown) [Example 106, 1-(5-Chloro-2-((6-methoxy-2-methyl-1,2,3,4-tetrahydroisoquinolin-7-yl)amino)pyrimidin-4-yl)-5-methoxyindoline-3-carboxylic acid] |  |  | ≤ 100 nM |  | ≤ 100 nM | 11
16 | CC(C)Oc1cc2c(cc1Nc1ncc(Cl)c(N3CC(C(=O)O)c4ccccc43)n1)CN(C)CC2 (stereo not shown) [Example 111, 1-(5-Chloro-2-((6-isopropoxy-2-methyl-1,2,3,4-tetrahydroisoquinolin-7-yl)amino)pyrimidin-4-yl)indoline-3-carboxylic acid] |  |  | ≤ 100 nM |  | > 1000 nM | >236
17 | COC(=O)c1cn(-c2nc(Nc3cc4c(cc3OC)CCN(C)C4)ncc2Cl)c2ccccc12 [Example 114] |  |  | ≤ 100 nM |  | > 1000 nM | >118
18 | COc1cc2c(cc1Nc1ncc(Cl)c(N3CC(C)(C(=O)O)c4ccccc43)n1)CN(C)CC2 (stereo not shown) [Example 117] |  |  | ≤ 100 nM |  | ≤ 100 nM | 5
19 | COc1cc2c(cc1Nc1ncc(Cl)c(N3CC(CO)(C(=O)O)c4ccccc43)n1)CN(C)CC2 (stereo not shown) [Example 124] |  |  | ≤ 100 nM |  | ≤ 100 nM | 20
20 | COc1cc2c(cc1Nc1ncc(Cl)c(N3CC(C)(C(=O)O)c4ccccc43)n1)CNCC2 (stereo not shown) [Example 127, 1-(5-Chloro-2-((6-methoxy-1,2,3,4-tetrahydroisoquinolin-7-yl)amino)pyrimidin-4-yl)-3-methylindoline-3-carboxylic acid] |  |  | ≤ 100 nM |  | ≤ 100 nM | 4
21 | CCC(CC)COC(=O)Cc1cn(-c2nc(Nc3cc4c(cc3OC)CCN(C)C4)ncc2Cl)c2ccccc12 [Example 131, 2-Ethylbutyl 2-(1-(5-chloro-2-((6-methoxy-2-methyl-1,2,3,4-tetrahydroisoquinolin-7-yl)amino)pyrimidin-4-yl)-1H-indol-3-yl)acetate] |  |  | 100 to 500 nM |  | > 1000 nM | >82
22 | CCOC(=O)Cc1cn(-c2nc(Nc3cc4c(cc3OC)CCN(C)C4)ncc2Cl)c2ccccc12 [Example 132] |  |  | ≤ 100 nM |  | > 1000 nM | >426
23 | COc1cc2c(cc1Nc1ncc(Cl)c(-n3cc(C4(C(=O)O)CC4)c4ccccc43)n1)CN(C)CC2 [Example 143] |  |  | ≤ 100 nM |  | > 1000 nM | 433
